In US9403823B2, “Protein kinase inhibitors” (ORIBASE PHARMA, priority 2012, dated 2016):
Like-named read-outs stand apart in the source and are kept apart here.

Key:
[1] = molecular target: T1, BRAF (Homo sapiens, UniProt P15056); assay: In vitro kinase assay (Z'-LYTE), BRAF; type: biochemical; settings: read-out: % of inhibition of the kinase compared to the control
T1 construct: purchased Invitrogen
Procedure: (§1) 1) In Vitro Kinase Assays (Table 10 to Table 21)
(§2) The inhibitory activity of the compounds on several kinases including BRAF, EGFR (ErbB1), EGFR (ErbB1) T790M L858R, FGFR2, KDR (VEGFR2), PDGFRA (PDGFR alpha), SRC and other was evaluated by Invitrogen using the Z′-LYTE® technology. Briefly, the Z′-LYTE® biochemical assay employs a fluorescence-based, coupled-enzyme format and is based on the differential sensitivity of phosphorylated and non-phosphorylated peptides to proteolytic cleavage. The peptide substrate is labeled with two fluorophores—one at each end—that make up a FRET pair. A ratiometric method, which calculates the ratio (the Emission Ratio) of donor emission to acceptor emission after excitation of the donor fluorophore at 400 nm, is used to quantitate reaction progress.
(§3) The compounds are screened in 1% DMSO (final) in the well. For 10 point titrations, 3-fold serial dilutions are conducted from the starting concentration. All Peptide/Kinase Mixtures are diluted to a 2× working concentration in the appropriate Kinase Buffer. All ATP Solutions are diluted to a 4× working concentration in Kinase Buffer (50 mM HEPES pH 7.5, 0.01% BRIJ-35, 10 mM MgCl2, 1 mM EGTA). ATP Km apparent is previously determined using a Z′-LYTE® assay.
(§4) Each compound was incubated at a concentration of 100 nM (excepted to test the activity against ABL and ABL T315I for which the compounds were incubated at a concentration of 10 μM) and the tables 10 to 21 summarize the results obtained showing the inhibitory power of a compound.

[2] = molecular target: T2, EGFR (ErbB1) (Homo sapiens, UniProt P00533); assay: In vitro kinase assay (Z'-LYTE), EGFR (ErbB1); type: biochemical; settings: read-out: % of inhibition of the kinase compared to the control
T2 construct: purchased Invitrogen
T2 sequence (P00533 25-1210): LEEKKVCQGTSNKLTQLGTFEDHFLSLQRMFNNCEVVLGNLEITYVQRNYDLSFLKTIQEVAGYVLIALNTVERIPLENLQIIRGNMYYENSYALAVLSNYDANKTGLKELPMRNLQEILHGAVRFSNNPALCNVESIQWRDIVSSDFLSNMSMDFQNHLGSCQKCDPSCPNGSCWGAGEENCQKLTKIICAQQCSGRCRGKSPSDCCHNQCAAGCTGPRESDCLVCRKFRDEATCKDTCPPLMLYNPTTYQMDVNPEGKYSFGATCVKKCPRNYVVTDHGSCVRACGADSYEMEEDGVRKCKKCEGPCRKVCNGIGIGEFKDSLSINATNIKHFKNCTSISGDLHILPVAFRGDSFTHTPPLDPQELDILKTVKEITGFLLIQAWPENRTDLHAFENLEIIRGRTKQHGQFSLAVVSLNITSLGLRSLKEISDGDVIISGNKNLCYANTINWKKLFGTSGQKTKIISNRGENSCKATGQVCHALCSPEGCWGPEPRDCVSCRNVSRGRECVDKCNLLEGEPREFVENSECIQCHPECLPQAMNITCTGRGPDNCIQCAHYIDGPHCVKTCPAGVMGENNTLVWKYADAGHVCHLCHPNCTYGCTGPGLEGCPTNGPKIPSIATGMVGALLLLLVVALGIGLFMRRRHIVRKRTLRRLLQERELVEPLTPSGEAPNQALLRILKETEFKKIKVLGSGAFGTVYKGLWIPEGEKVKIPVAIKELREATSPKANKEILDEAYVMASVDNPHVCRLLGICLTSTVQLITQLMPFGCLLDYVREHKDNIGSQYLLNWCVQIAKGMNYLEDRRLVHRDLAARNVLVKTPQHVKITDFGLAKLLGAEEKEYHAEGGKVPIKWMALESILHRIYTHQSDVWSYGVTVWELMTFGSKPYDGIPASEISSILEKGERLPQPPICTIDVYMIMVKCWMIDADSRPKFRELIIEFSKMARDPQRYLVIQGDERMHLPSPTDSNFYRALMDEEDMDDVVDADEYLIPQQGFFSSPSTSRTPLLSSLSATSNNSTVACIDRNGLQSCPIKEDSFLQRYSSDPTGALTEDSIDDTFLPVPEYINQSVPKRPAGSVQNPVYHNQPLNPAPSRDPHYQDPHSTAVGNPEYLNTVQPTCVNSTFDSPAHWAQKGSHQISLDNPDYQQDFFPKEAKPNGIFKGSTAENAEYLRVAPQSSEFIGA
Procedure: as §1, §2, §3, §4

[3] = molecular target: T3, EGFR (ErbB1) T790M L858R (Homo sapiens, UniProt P00533, L858R/T790M); assay: In vitro kinase assay (Z'-LYTE), EGFR (ErbB1) T790M L858R; type: biochemical; settings: read-out: % of inhibition of the kinase compared to the control
T3 construct: purchased Invitrogen
Procedure: as §1, §2, §3, §4

[4] = molecular target: T4, FGFR2 (Homo sapiens, UniProt P21802); assay: In vitro kinase assay (Z'-LYTE), FGFR2; type: biochemical; settings: read-out: % of inhibition of the kinase compared to the control
T4 construct: purchased Invitrogen
T4 sequence (P21802 22-821): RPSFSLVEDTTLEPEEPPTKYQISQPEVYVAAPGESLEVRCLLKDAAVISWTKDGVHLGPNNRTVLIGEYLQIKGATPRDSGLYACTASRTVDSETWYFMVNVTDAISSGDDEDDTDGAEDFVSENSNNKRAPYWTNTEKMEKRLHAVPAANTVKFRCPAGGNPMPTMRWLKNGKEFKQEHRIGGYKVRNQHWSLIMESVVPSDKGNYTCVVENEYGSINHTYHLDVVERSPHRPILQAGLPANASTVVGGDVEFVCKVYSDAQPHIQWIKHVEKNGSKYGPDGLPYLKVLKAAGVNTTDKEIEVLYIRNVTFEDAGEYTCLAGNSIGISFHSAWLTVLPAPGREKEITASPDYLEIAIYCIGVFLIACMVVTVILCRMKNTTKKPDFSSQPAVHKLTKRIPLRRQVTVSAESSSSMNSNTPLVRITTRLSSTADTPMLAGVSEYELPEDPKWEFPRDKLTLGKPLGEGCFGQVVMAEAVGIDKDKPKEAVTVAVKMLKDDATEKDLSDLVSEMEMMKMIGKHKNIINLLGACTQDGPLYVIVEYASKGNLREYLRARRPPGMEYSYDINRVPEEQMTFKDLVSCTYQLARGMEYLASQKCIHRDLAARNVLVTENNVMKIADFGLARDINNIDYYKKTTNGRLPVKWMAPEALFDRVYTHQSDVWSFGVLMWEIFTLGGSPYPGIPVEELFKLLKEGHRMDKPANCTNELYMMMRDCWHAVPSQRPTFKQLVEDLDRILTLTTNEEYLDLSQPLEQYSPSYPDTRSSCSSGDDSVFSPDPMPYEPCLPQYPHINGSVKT
Procedure: as §1, §2, §3, §4

[5] = molecular target: T5, KDR (VEGFR2) (Homo sapiens, UniProt P35968); assay: In vitro kinase assay (Z'-LYTE), KDR (VEGFR2); type: biochemical; settings: read-out: % of inhibition of the kinase compared to the control
T5 construct: purchased Invitrogen
T5 sequence (P35968 20-1356): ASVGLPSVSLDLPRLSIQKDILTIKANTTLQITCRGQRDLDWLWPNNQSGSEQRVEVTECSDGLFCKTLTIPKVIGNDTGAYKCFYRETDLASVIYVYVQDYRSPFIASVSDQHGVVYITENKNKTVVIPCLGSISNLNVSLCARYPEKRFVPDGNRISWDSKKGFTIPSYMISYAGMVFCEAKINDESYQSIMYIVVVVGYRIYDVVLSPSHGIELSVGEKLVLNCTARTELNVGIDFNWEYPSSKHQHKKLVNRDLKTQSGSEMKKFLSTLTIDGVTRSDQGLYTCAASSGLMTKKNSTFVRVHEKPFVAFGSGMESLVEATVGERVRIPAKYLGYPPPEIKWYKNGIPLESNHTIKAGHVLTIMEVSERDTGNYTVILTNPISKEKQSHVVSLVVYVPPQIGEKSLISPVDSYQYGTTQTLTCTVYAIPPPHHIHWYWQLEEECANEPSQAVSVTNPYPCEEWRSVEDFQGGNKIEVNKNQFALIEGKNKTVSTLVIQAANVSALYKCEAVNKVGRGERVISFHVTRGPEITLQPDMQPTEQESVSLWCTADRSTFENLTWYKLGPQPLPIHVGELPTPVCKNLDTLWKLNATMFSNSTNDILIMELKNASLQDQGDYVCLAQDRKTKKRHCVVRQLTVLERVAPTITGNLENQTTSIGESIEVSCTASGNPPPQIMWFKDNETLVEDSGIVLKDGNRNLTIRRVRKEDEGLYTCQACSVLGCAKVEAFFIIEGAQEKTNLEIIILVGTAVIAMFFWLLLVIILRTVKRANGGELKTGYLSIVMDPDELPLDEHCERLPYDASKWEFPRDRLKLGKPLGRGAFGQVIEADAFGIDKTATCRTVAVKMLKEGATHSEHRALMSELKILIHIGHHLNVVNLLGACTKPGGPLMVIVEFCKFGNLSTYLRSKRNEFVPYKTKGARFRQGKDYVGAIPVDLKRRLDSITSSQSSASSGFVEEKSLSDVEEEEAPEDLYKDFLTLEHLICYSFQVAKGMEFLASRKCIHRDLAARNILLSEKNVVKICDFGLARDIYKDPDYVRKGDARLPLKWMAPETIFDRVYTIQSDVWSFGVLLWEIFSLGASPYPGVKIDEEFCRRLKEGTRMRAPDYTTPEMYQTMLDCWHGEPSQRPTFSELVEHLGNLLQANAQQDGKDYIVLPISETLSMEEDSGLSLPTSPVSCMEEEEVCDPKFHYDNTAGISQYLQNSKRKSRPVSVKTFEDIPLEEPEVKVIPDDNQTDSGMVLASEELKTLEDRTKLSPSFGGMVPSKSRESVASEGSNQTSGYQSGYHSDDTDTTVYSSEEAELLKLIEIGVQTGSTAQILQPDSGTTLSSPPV
Procedure: as §1, §2, §3, §4

[6] = molecular target: T6, PDGFRA (PDGFR alpha) (Homo sapiens, UniProt P16234); assay: In vitro kinase assay (Z'-LYTE), PDGFRA; type: biochemical; settings: read-out: % of inhibition of the kinase compared to the control
T6 construct: purchased Invitrogen
Procedure: as §1, §2, §3, §4

[7] = molecular target: T7, SRC (Homo sapiens, UniProt P12931); assay: In vitro kinase assay (Z'-LYTE), SRC; type: biochemical; settings: read-out: % of inhibition of the kinase compared to the control
T7 construct: purchased Invitrogen
T7 sequence (P12931 whole entry): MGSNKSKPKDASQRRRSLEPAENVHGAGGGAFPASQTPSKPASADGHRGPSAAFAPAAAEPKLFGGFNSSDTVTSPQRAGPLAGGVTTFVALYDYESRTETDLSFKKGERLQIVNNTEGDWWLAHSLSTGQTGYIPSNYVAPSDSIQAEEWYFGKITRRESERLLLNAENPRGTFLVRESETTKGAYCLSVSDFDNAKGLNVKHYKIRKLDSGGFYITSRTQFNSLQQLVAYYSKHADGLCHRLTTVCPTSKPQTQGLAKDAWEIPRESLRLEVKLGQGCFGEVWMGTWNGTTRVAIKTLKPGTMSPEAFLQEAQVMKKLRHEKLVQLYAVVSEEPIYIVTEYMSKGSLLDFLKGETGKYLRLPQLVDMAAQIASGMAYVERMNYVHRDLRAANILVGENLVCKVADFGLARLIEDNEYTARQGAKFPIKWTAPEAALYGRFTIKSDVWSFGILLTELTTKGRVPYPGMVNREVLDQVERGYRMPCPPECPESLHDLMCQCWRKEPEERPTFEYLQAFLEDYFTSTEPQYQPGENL
Procedure: as §1, §2, §3, §4

[8] = tested on: A549 cell line; assay: In vitro cell proliferation assay (MTT), A549; type: cell-based; settings: Homo sapiens, read-out: EC50, anti-proliferative activity
Procedure: (§5) 2) In Vitro Cell Proliferation Assays (Table 22 to Table 35)
(§6) Cancer cell lines (5×10^3 cells per well) or HUVEC (1×10^4 cells per well) or HRMEC (1×10^4 cells per well) were distributed in 96-well plates and incubating in duplicate with escalating concentrations (10 nM to 3 μM) of compounds for 72 hr. Cell proliferation was measured using MTT (3[4,5-dimethylthiazol-2-yl]-2,5-diphenyltetrazolium bromide).

[9] = tested on: HepG2 cell line; assay: In vitro cell proliferation assay (MTT), HepG2; type: cell-based; settings: Homo sapiens, read-out: EC50, anti-proliferative activity
Procedure: as §5, §6

[10] = tested on: HUVEC; assay: In vitro cell proliferation assay (MTT), HUVEC; type: cell-based; settings: Homo sapiens, read-out: EC50, anti-proliferative activity
Procedure: as §5, §6

[11] = tested on: MDA-MB-231 cell line; assay: In vitro cell proliferation assay (MTT), MDA-MB-231; type: cell-based; settings: Homo sapiens, read-out: EC50, anti-proliferative activity
Procedure: as §5, §6

[12] = tested on: HeLa cell line; assay: In vitro cell proliferation assay (MTT), HeLa; type: cell-based; settings: Homo sapiens, 72 hr, MTT, read-out: EC50, anti-proliferative activity
Procedure: as §5, §6

[13] = tested on: HuCCT1 cell line; assay: In vitro cell proliferation assay (MTT), HuCCT1; type: cell-based; settings: Homo sapiens, HuCCT-1; HuCCT1, 72 hr, MTT; read-out: EC50, anti-proliferative activity
Procedure: as §5, §6

[14] = tested on: HT29 cell line; assay: In vitro cell proliferation assay (MTT), HT29; type: cell-based; settings: Homo sapiens, HT-29; HT29, 72 hr, MTT; read-out: EC50, anti-proliferative activity
Procedure: as §5, §6

[15] = tested on: H1975 cell line; assay: In vitro cell proliferation assay (MTT), H1975; type: cell-based; settings: Homo sapiens, NCI-H1975; H1975, 72 hr, MTT; read-out: EC50, anti-proliferative activity
Procedure: as §5, §6

T1 sequence (P15056 whole entry): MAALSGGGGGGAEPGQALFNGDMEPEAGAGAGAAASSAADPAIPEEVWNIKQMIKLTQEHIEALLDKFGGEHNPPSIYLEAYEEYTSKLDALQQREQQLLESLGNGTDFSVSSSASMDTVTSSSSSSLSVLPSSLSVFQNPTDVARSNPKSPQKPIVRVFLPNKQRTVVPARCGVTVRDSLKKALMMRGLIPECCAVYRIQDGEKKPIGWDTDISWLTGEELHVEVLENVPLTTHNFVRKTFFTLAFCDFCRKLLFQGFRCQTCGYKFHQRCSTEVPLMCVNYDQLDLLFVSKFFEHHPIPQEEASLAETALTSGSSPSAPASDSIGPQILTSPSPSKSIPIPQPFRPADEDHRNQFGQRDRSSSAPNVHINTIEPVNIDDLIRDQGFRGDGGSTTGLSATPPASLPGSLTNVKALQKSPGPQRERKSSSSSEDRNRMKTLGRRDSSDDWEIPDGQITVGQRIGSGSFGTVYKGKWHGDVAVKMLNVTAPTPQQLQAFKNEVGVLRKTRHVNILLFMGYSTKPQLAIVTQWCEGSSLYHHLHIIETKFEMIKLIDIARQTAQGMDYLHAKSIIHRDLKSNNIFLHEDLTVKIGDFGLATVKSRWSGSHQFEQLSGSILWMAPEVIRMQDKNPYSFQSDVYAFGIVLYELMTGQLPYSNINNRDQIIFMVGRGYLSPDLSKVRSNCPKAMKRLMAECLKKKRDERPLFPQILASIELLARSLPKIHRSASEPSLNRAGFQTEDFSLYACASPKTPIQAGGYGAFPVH

Compound | inhibition at 0.1 µM [1] [%] | inhibition at 0.1 µM [2] [%] | inhibition at 0.1 µM [3] [%] | inhibition at 0.1 µM [4] [%] | inhibition at 0.1 µM [5] [%] | inhibition at 0.1 µM [6] [%] | inhibition at 0.1 µM [7] [%] | EC50 ([8]; A549, 72 hr, MTT) [nM] | EC50 ([9]; HepG2, 72 h) [nM] | EC50 ([11]; MDA-MB-231, 72 h) [nM] | EC50 [12] [nM] | EC50 ([9]; HepG2, 72 hr, MTT) [nM] | EC50 ([8]; A549, 72 h) [nM] | EC50 ([11]; MDA-MB-231, 72 hr, MTT) [nM] | EC50 [14] [nM] | EC50 [15] [nM] | EC50 ([10]; 72 hr, MTT) [nM] | EC50 [13] [nM] | EC50 ([10]; 72 h) [nM]
Cc1ccc(NC(=O)c2ccc(CN3CCN(C)CC3)cc2)cc1CNc1cnc2[nH]c(C(=O)O)cc2c1 [OR0692, 5-{2-Methyl-5-[4-(4-methyl-piperazin-1-ylmethyl)-benzoylamino]-benzylamino}-1H-pyrrolo[2,3-b]pyridine-2-carboxylic acid] | < 50 | ≥ 50 | < 50 | < 50 | ≥ 50 | ≥ 50 | ≥ 50 |  |  |  |  |  |  |  |  |  |  |  | 
CC(=O)c1cc2cc(NCc3cc(NC(=O)c4ccc(CN5CCN(C)CC5)c(F)c4)ccc3C)cnc2[nH]1 [OR0885, N-{3-[(2-Acetyl-1H-pyrrolo[2,3-b]pyridin-5-ylamino)-methyl]-4-methyl-phenyl}-3-fluoro-4-(4-methyl-piperazin-1-ylmethyl)-benzamide] | ≥ 50 | ≥ 50 |  | ≥ 50 | ≥ 50 |  |  | ≥ 1000 | 100 to 1000 | 100 to 1000 | ≥ 1000 |  |  |  |  |  | ≥ 1000 |  | 
Cc1nc(Nc2ncc(C(=O)Nc3c(C)cccc3Cl)s2)cc(N2CCN(CCO)CC2)n1 [Dasatinib, reference compound] |  |  |  |  |  |  |  |  |  |  |  | ≥ 1000 |  |  |  |  |  | ≥ 1000 | 
CC(=O)c1cc2cc(NC(=O)c3cc(NC(=O)c4ccc(CN5CCN(C)CC5)cc4)ccc3C)cnc2[nH]1 [OR0780, N-(2-Acetyl-1H-pyrrolo[2,3-b]pyridin-5-yl)-2-methyl-5-[4-(4-methyl-piperazin-1-ylmethyl)-benzoylamino]-benzamide] | < 50 | < 50 | < 50 | < 50 | < 50 | ≥ 50 | < 50 | ≥ 1000 |  |  |  |  |  |  | ≥ 1000 | ≥ 1000 | ≥ 1000 |  | 

The next lines start with results.

inhibition at 0.1 µM [1] [%] | inhibition at 0.1 µM [2] [%] | inhibition at 0.1 µM [3] [%] | inhibition at 0.1 µM [4] [%] | inhibition at 0.1 µM [5] [%] | inhibition at 0.1 µM [6] [%] | inhibition at 0.1 µM [7] [%] | EC50 ([8]; A549, 72 hr, MTT) [nM] | EC50 ([9]; HepG2, 72 h) [nM] | EC50 ([11]; MDA-MB-231, 72 h) [nM] | EC50 [12] [nM] | EC50 ([9]; HepG2, 72 hr, MTT) [nM] | EC50 ([8]; A549, 72 h) [nM] | EC50 ([11]; MDA-MB-231, 72 hr, MTT) [nM] | EC50 [14] [nM] | EC50 [15] [nM] | Compound | EC50 ([10]; 72 hr, MTT) [nM] | EC50 [13] [nM] | EC50 ([10]; 72 h) [nM]
 |  |  |  |  |  |  |  | ≤ 100 | 100 to 1000 | ≥ 1000 |  | 100 to 1000 |  |  |  | CC(=O)c1cc2cc(NCc3cc(NC(=O)c4cc(N5CCN(C)CC5)cc(C(F)(F)F)c4)ccc3F)cnc2[nH]1 [OR1060, N-{3-[(2-Acetyl-1H-pyrrolo[2,3-b]pyridin-5-ylamino)-methyl]-4-fluoro-phenyl}-3-(4-methyl-piperazin-1-yl)-5-trifluoromethyl-benzamide] |  |  | 100 to 1000
 |  |  |  |  |  |  | ≥ 1000 |  |  | ≥ 1000 | ≥ 1000 |  | ≥ 1000 |  |  | CC(=O)c1cc2cc(NCc3cc(NC(=O)C4CCC(C(F)(F)F)CC4)ccc3F)cnc2[nH]1 (centres unmarked) [OR1058, 4-Trifluoromethyl-cyclohexanecarboxylic acid {3-[(2-acetyl-1H-pyrrolo[2,3-b]pyridin-5-ylamino)-methyl]-4-fluoro-phenyl}-amide] | ≥ 1000 |  | 
< 50 | < 50 |  | < 50 | < 50 | < 50 | < 50 | ≥ 1000 | 100 to 1000 |  | ≥ 1000 |  |  | ≥ 1000 |  |  | CC(=O)c1cc2cc(NCc3cc(NC(=S)Nc4cccc(C(F)(F)F)c4)ccc3C)cnc2[nH]1 [OR1015, 1-{3-[(2-Acetyl-1H-pyrrolo[2,3-b]pyridin-5-ylamino)-methyl]-4-methyl-phenyl}-3-(3-trifluoromethyl-phenyl)-thiourea] |  |  | 100 to 1000
